Source: patent US4579866A, “Phenylacetamides as anti-allergy, anti-asthma and anti-inflammatory agents” (USV Pharmaceutical Corp., priority 1984, dated 1986)

Key:
RAT 5-LIPOXYGENASE = molecular target: T1, RAT 5-LIPOXYGENASE (Rattus norvegicus, UniProt P12527); experiment: Biosynthesis of 5-HETE by rat polymorphonuclear leukocytes in vitro (inhibition of rat 5-lipoxygenase); format: cell-based; conditions: rat neutrophils, A23187, 3 minutes at 30° C.; for IC50: concentration at which 50% inhibition is observed, read-out: INHIBITION OF RAT 5-LIPOXYGENASE, I50
T1 construct: A suspension of rat neutrophils in buffer; endogenous in cells; host or cells: rat neutrophils (polymorphonuclear leukocytes)
T1 sequence (P12527 1-673): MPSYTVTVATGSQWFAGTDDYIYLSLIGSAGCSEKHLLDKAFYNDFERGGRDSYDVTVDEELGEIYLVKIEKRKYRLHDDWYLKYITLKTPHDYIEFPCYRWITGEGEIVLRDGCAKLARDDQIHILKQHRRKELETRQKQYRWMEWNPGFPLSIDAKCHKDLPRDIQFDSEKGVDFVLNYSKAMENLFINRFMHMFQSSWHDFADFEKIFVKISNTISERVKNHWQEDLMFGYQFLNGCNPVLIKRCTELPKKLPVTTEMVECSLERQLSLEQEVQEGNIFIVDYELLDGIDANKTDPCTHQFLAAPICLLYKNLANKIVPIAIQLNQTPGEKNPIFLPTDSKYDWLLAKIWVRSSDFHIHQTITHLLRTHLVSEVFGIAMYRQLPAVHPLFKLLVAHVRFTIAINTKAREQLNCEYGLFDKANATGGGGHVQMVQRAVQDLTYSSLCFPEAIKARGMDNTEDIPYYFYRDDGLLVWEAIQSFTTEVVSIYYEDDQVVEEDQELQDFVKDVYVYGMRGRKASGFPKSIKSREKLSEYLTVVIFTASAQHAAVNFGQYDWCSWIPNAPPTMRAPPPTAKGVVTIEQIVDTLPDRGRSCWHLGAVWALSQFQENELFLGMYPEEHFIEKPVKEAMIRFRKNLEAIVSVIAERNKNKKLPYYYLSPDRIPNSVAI
Protocol: Protocol for the Biosynthesis of 5-HETE by Rat Polymorphonuclear Leukocytes In Vitro
A suspension of rat neutrophils in buffer is incubated for 3 minutes at 30° C. with [^14 C]-arachidonic acid (AA) and calcium ionophore A23187. Citric Acid (2M) NDGA (10 mM) is used to quench the reaction. Following the addition of a trace amount of (^3 H)-5-HETE together with an excess of unlabeled 5-HETE to each tube, the mixture is extracted with chloroform/methanol. The organic layer is washed with dilute acid and an aliquot is transferred to glass tubes and dried. The residue is dissolved in a small volume of chloroform and an aliquot is spotted on silica gel TLC sheets, which are developed with an ethyl acetate/isoctane/water/acetic acid solvent system. The 5-HETE spots are visualized under UV light, cut out and placed in scintillation vials for counting. After adjusting for the extraction efficiency, the amount (pmole) of [^14 C]-5-HETE in each of the tubes is quantitated. The net pmoles of 5-HETE are obtained by subtracting the pmoles of 5-HETE in the tubes containing buffer alone (blank) from the pmoles of 5-HETE in the tubes containing […]. The ability of the test compounds to modulate the activity of this enzyme is determined by a decrease or increase in the net amount of 5-HETE produced.
(§1) If the percentage of inhibition exceeds 50%, the compounds are then evaluated in terms of response over a range of concentrations. From a plot of response against concentration, the I50 value is obtained. The I50 value is the concentration at which 50% inhibition is observed.

LTC4 = experiment: Antagonism of leukotriene C4 binding (guinea pig peripheral lung strips, contraction); format: cell-based; conditions: Cavia porcellus, leukotriene C4 usually 0.2 nM, 37° C., read-out: ANTAGONISM OF LTC4 BINDING, I50
Protocol: Protocol for Antagonism of Leukotrines C-4 Binding
Peripheral strips of guinea pig lungs are prepared and hung in tissue baths according to the procedure described by Drazen et al. (Proc. Nat'l. Acad. Sci., U.S.A. 77, 4354-4358, 1980). Male guinea pigs (Charles River, 250-400 g) are sacrificed by cervical dislocation and their lungs rapidly removed. The individual lobes are dissected free and rinsed in Assay Buffer (118 mM NaCl, 5.4 mM KCl, 2.5 mM CaCl2, 25 mM […], 1 mM MgSO4, 1 mM NaH2 PO4, 11 mM glucose) which is continuously aerated with 95% oxygen/5% carbon dioxide. After the lobes are extensively rinsed, a strip of lung tissue, approximately 2 mm thick and 5-8 cm long, is cut off the sharpest and most peripheral portion of each lobe. The peripheral edge is cut almost completely around the outside of the lobe so that a U-shaped strip is obtained. These strips are rinsed in Assay Buffer and then connected with surgical silk thread to the support rods of the water jacketed tissue baths (10 ml chambers). The other ends of the strips are connected to Gould UC3 pressure transducers which had been previously calibrated. The tissue baths are aerated with 95% oxygen/5% carbon dioxide and maintained at 37° C. The tension on these strips are adjusted to 500 mg. The tissues are initially washed with fresh buffer every 5-10 minutes for about 30 minutes and thereafter washed with fresh assay buffer at least every 20 minutes.
After the tissue had been repeatedly washed and allowed to equilibrate in the tissue baths, they are challenged with 1 μM histamine to standardize the contractions for each tissue.
Responses of each tissue to a predetermined concentration (usually 0.2 nM) of leukotriene C4 are then obtained. Compounds are then tested for their ability to antagonize to leukotriene C4 immediately upon challenge.
as §1

Row | Structure (SMILES) | inhibition at 10 µM (RAT 5-LIPOXYGENASE) [%] | IC50 (LTC4) [µM] | IC50 (RAT 5-LIPOXYGENASE) [µM]
1 | C=CCOc1ccc(C(=O)N[C@@H](Cc2ccccc2)C(=O)OC)cc1Cl [4-Allyloxy-3-chlorobenzoyl-L-phenylalanine methyl ester] | 34 | 15 | 
2 | C=CCOc1ccc(CC(=O)N(C)[C@H](C)[C@@H](O)c2ccccc2)cc1Cl [4-Allyloxy-3-chlorophenylacetyl-(+)-ephedrine] |  |  | 15
3 | C=CCOc1ccc(CC(=O)N(C)[C@@H](C)[C@H](O)c2ccccc2)cc1Cl [4-Allyloxy-3-chlorophenylacetyl-(-)-ephedrine] |  |  | 30
4 | C=CCOc1ccc(CC(=O)N(CC(=O)OCC)Cc2ccccc2)cc1Cl [4-Allyloxy-3-chlorophenylacetyl-N--benzylglycine ethyl ester] |  | 20 | 8
5 | COC(=O)[C@H](Cc1ccccc1)NC(=O)Cc1ccc(OCc2ccccc2)cc1 [4-Benzyloxyphenylacetyl-L-phenylalanine methyl ester] | 29 | 5 | 
6 | COC(=O)[C@H](Cc1ccccc1)NC(=O)c1ccc(OC2C=CCCC2)cc1 (stereo partly drawn) [4-[2-Cyclohexenyloxy]-benzoyl-L-phenylalanine methyl ester] | 33 |  | 
7 | COc1ccc(CC(=O)N(C)CCc2ccccc2)cc1Cl [N--[3-Chloro-4-methoxyphenylacetyl]-N--methyl-2-phenylethylamine] | 33 |  | 
8 | C=CCOc1ccc(CC(=O)NCC(C)c2ccccc2)cc1Cl (centres unmarked) [N--[4-Allyloxy-3-chlorophenylacetyl]-1-amino-2-phenylpropane] | 18 | 2.5 | 
9 | C=CCOc1ccc(CC(=O)NC(CO)C(O)c2ccccc2)cc1Cl [N--[4-Allyloxy-3-chlorophenylacetyl]-3S-hydroxy-L-phenylalaninol] | 36 |  | 
10 | C=CCOc1ccc(CC(=O)N[C@H](CO)Cc2ccccc2)cc1Cl [N--[4-Allyloxy-3-chlorophenylacetyl]-L-phenylalaninol] | 33 | 3 | 
11 | C=CCOc1ccc(CC(=O)N(C)CC(O)c2ccccc2)cc1Cl (centres unmarked) [N--[4-Allyloxy-3-chlorophenylacetyl]-N--methyl-2-hydroxy-2-phenylethylamine] |  | 18 | 1.8

Other lines, results leading:

Row | inhibition at 10 µM (RAT 5-LIPOXYGENASE) [%] | IC50 (LTC4) [µM] | IC50 (RAT 5-LIPOXYGENASE) [µM] | Structure (SMILES)
12 | 25 | 9 |  | C=CCOc1ccc(CC(=O)NC(Cc2ccc(Cl)cc2)C(=O)OC)cc1Cl (racemic) [4-Allyloxy-3-chlorophenylacetyl-DL-p-chlorophenylalanine methyl ester]
13 | 50 |  |  | COC(=O)[C@@H](Cc1ccccc1)NC(=O)Cc1ccc(OCc2ccc3ccccc3n2)c(Cl)c1 [1-Chloro-4-[2-quinolinemethyloxy]-phenylacetyl-D-phenylalanine methyl ester]
14 |  |  | 3.8 | COC(=O)[C@@H](Cc1ccccc1)NC(=O)Cc1ccc(OC)c(Cl)c1 [3-Chloro-4-methoxyphenylacetyl-D-phenylalanine methyl ester]
15 |  | 9 | 0.7 | C=CCOc1ccc(CC(=O)N[C@H](Cc2ccccc2)C(=O)OC)cc1Cl [4-Allyloxy-3-chlorophenylacetyl-D-phenylalanine methyl ester]
16 | 27 | 5 |  | C=CCOc1ccc(CC(=O)N[C@@H](Cc2ccccc2)C(=O)OC)cc1Cl [4-Allyloxy-3-chlorophenylacetyl-L-phenylalanine methyl ester]
17 | 40 |  |  | O=C(Cc1ccc(OCc2ccccc2)c(Cl)c1)N[C@H](Cc1ccccc1)C(=O)O [4-Benzyloxy-3-chlorophenylacetyl-D-phenylalanine]
18 |  |  | 20 | C=CCOc1ccc(CC(=O)NCC(O)c2ccccc2)cc1Cl (centres unmarked) [N--[4-Allyloxy-3-chlorophenylacetyl]-2-hydroxy-2-phenylethylamine]
19 | 41 |  |  | C=CCOc1ccc(CC(=O)N(CCO)Cc2ccccc2)cc1Cl [N--benzyl, N--[2-hydroxyethyl]-3-chloro-4-allyloxyphenylacetamide]
20 |  |  | 20 | C=CCOc1ccc(CC(=O)N(C)Cc2ccccc2)cc1Cl [N--benzyl, N--methyl-3-chloro-4-allyloxy-phenylacetamide]
